1 molecule from PMC3169411, “Structure of aldose reductase from Giardia lamblia” (Acta Crystallographica Section F: Structural Biology and …, 2011) can be followed below.

For this assay, the target named is T1, G. lamblia aldose reductase (Giardia duodenalis, UniProt A8BGX6).
T1 construct: gene GL50803_007260; full-length; E. coli BL21(DE3); observed Ser0-Asp313; dimer
T1 sequence (A8BGX6 1-313): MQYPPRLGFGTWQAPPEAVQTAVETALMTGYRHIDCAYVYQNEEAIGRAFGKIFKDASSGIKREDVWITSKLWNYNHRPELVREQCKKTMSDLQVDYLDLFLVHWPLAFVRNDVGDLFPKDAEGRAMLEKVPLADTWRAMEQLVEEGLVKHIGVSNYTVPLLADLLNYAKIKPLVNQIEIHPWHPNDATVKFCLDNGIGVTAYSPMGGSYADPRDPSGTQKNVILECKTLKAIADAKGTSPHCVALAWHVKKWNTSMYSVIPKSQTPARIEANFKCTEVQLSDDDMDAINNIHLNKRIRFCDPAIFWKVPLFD
The assay can be described thus: X-ray crystallography, […] Å. In kind it is binding. Conditions: co-purified (none added); crystals from 20% PEG 3350, 200 mM sodium formate, 100 mM Bis-Tris propane; cofactor site, Arg269 and His242.

Regarding `NC(=O)c1ccc[n+]([C@@H]2O[C@H](COP(=O)(O)OP(=O)(O)OC[C@H]3O[C@@H](n4cnc5c(N)ncnc54)[C@H](OP(=O)(O)O)[C@@H]3O)[C@@H](O)[C@H]2O)c1` [NADP^+], the “X-ray crystallography, 1.75 Å” value is “One NADP^+ molecule and one ethylene glycol molecule were modelled in each chain”.
